The values that follow come from paper PMC2533715, “Suppressive Effects of Selected Food Phytochemicals on CD74 Expression in NCI-N87 Gastric Carcinoma Cells” (Journal of Clinical Biochemistry and Nutrition, 2008).

Series [1] has as its system H. pylori-induced gastritis. Also on record: method as in PMID 14550260. The note with it: Mongolian gerbils; cited from earlier work.
Series [2] deals with CD74. Nature of the series: Cell-based ELISA for constitutive CD74 expression. The note with it: 48 h, NCI-N87 cells; for IR (%) inhibition rate of CD74 expression: mean ± average deviation; for IC50: mean of duplicate experiments, unit printed in b25 only, read-out: IC50 (50% inhibitory concentration) for constitutive CD74 expression. Also on record: species or system human. In general terms: ELISA stands for enzyme-linked immunosorbent assay.

Series [3] is described as follows: Cell viability (MTT). The note with it: human.
Series [4] relates to H. pylori urease. Also on record: method as in PMID 14550260. The note with it: in vitro; cited from earlier work.
For series [5], the system named is NCI-N87 gastric carcinoma cells. Nature of the series: Cell viability (MTT). The note with it: NCI-N87 cells, 48 h.
Series [6] concerns H. pylori. The note with it: cited from earlier work.
For series [7], the system named is skin tumors. On the set-up: method as in PMID 9276625. The note with it: mice; cited from earlier work.
The subject of series [8] is MCF-7 cells. On the set-up: method as in PMID 12641443. The note with it: induced by benzo[a]pyrene and 7,12-dimethylbenz[a]anthracene; cited from earlier work.
Series [9] concerns CYP1A1. Also on record: method as in PMID 15670584. The note with it: cited from earlier work.
Series [10] relates to cytochrome P450 (CYP) 3A4. On the set-up: method as in PMID 9548795. The note with it: cited from earlier work.
Series [11] has as its system leukemia differentiation. Also on record: method as in PMID 10552768. The note with it: cited from earlier work.
The subject of series [12] is NO generation. On the set-up: method as in PMID 10563895. The note with it: cited from earlier work.
The subject of series [13] is NF-κB. On the set-up: method as in PMID 12106602. The note with it: MKN45 gastric carcinoma cells co-cultured with H. pylori; cited from earlier work.
Series [14] is described as follows: in vitro. The note with it: human.
For series [15], the system named is NF-κB. On the set-up: method as in PMID 15589482, PMID 16317159, PMID 9521814, PMID 17420607. The note with it: several cell lines; cited from earlier work.
Series [16] relates to H. pylori-infected human gastric mucosal cells. On the set-up: method as in PMID 17028789. The note with it: cited from earlier work.
Where [17] appears, read: NCI-N87 gastric carcinoma cells.

The viability is a read-out of living cells in per cent, often relative to untreated cells. With `O=C(OC1Cc2c(O)cc(O)cc2OC1c1cc(O)c(O)c(O)c1)c1cc(O)c(O)c(O)c1` (single isomer, unassigned; (-)) [EGCG, (−)-epigallocatechin-3-gallate], the H. pylori-induced gastritis entry in series [1] is “suppressed”. The “IR (%) inhibition rate of CD74 expression” value (“IR (%) inhibition rate” below) in [2] (4 µM) was −110 ± 8.3%. In addition, the “IR (%) inhibition rate” value in series [2] (20 µM) was −149 ± 3.8%. Further, in series [2] (100 µM), the “IR (%) inhibition rate” value is −217 ± 4.0%. For the same compound, in [2], the “Suppression of CD74 expression (in words)” value (“Suppression” below) is “did not suppress CD74 expression, but rather enhanced it” and the IC50 was above 100 µM. The compound further came in with a CC50 at 48 h in series [3] above 100 µM. In series [3] (setting [17]), this compound came in with a viability at 48 h, 4 µM of 78 ± 6.3%; a viability at 48 h, 20 µM of 77 ± 3.1%; a viability at 48 h, 100 µM of 78 ± 5%. Further, the “H. pylori urease activity” value in series [4] is “strongly inhibited”.
Take `Oc1cc(O)c2c(c1)O[C@@H](c1ccc(O)c(O)c1)[C@H](O)C2` [(−)-Catechin]: the “IR (%) inhibition rate” value in series [2] (4 µM) is on record as −6.4 ± 2.0%. Moreover, the “IR (%) inhibition rate” value in series [2] (20 µM) stood at 40 ± 2.1%. In [2] (20 µM, listed as (−)-catechin), the “IR (%) inhibition rate” value is given as 40–65%. In series [2] (100 µM), the “IR (%) inhibition rate” value worked out at 65 ± 0.8%. Moreover, in series [2], the “Suppression” value is “suppressive only at a high concentration” and the IC50 turned out to be 69.2 µM. Also, in series [3] (setting [17]), the CC50 at 48 h is above 100 µM; the viability at 48 h, 4 µM was 97 ± 2.5%; the viability at 48 h, 20 µM is 97 ± 3.3%; the viability at 48 h, 100 µM was found to be 89 ± 5.9%. Besides, in [5], the “Cytotoxicity (in words)” value is “Marginal cytotoxicity”.
In the case of `O=C1O[C@H]([C@@H](O)CO)C(O)=C1O` [Ascorbic acid], the “IR (%) inhibition rate” value in [2] (4 µM) is given as “–12 ± 3.5%”; in series [2] (20 µM), 5.4 ± 3.8%; in series [2] (100 µM), 6.8 ± 1.8%; in [2] (100 µM, listed as ascorbic acid), “did not suppress CD74”. The IC50 in series [2] was above 100 µM. The compound also had a CC50 at 48 h in series [3] above 100 µM. Further, the viability at 48 h, 4 µM in series [3] (setting [17]) stood at 97 ± 1.7%. The compound further gave a viability at 48 h, 20 µM in series [3] (setting [17]) of 94 ± 0.3%. Also, the viability at 48 h, 100 µM in series [3] (setting [17]) came to 86 ± 5.8%. The “H. pylori colonization and subsequent inflammation” value in series [6] (Mongolian gerbils) is listed as “reduced”.
With `CC(C)=CCC/C(C)=C/COc1ccc2ccc(=O)oc2c1` [Auraptene], in series [2] (4 µM), the “IR (%) inhibition rate” value worked out at 2.4 ± 2.0%. For the same compound, the “IR (%) inhibition rate” value in series [2] (20 µM) is 50 ± 0.4%. Besides, the “IR (%) inhibition rate” value in series [2] (20 µM, listed as auraptene) is 40–65%. In addition, in series [2], the “Suppression” value was “significant activity” and the IC50 worked out at 19.8 µM. Also, the CC50 at 48 h in series [3] was 59.2 µM. For the same compound, in [3] (setting [17]), the viability at 48 h, 4 µM came out at 96 ± 2.7%; the viability at 48 h, 20 µM came out at 79 ± 4.5%; the viability at 48 h, 100 µM worked out at 18 ± 0.4%. In addition, in series [6] (in vivo), the H. pylori colonization result is recorded as “reduce”.
As for `CC(C)=CCC/C(C)=C/COc1c2ccoc2cc2oc(=O)ccc12` [Bergamottin], in [7], the Skin tumors entry was “reduced”. For the same compound, the “Formation of DNA adducts” value in series [8] is recorded as “reduced”. Also, in series [2] (4 µM), the “IR (%) inhibition rate” value was found to be 8.6 ± 4.2%. In series [2] (20 µM), the “IR (%) inhibition rate” value was 74 ± 8.2%. Further, in [2] (20 µM, listed as bergamottin), the “IR (%) inhibition rate” value was 74%. For the same compound, in series [2], the “Suppression” value is “significant activity” and the IC50 stood at 14.2 µM. In series [3] (setting [17]), this compound yielded a CC50 at 48 h above 100 µM; a viability at 48 h, 4 µM of 93%; a viability at 48 h, 20 µM of 79%; a viability at 48 h, 100 µM of 59 ± 2.1%. The “Inhibition of CYP1A1” value in series [9] was “inhibit”. Also, in [10], the “Inhibition of cytochrome P450 (CYP) 3A4” value is reported as “inhibit”. For the same compound, in series [11], the Leukemia differentiation entry was “induced”. The NO generation result in series [12] is on record as “reduced”.
As to `O=c1c(-c2ccc(O)cc2)coc2cc(O)cc(O)c12` [Genistein], in series [2] (4 µM), the “IR (%) inhibition rate” value worked out at 8.6 ± 7.8%. Besides, the “IR (%) inhibition rate” value in series [2] (20 µM) amounted to 49 ± 7.2%. Also, the “IR (%) inhibition rate” value in series [2] (20 µM, listed as genistein) was 40–65%. Moreover, in series [2], the IC50 is 20.5 µM. This compound also returned a CC50 at 48 h in series [3] above 100 µM. In series [3] (setting [17]), this compound returned a viability at 48 h, 4 µM of 100 ± 0.4%; a viability at 48 h, 20 µM of 84 ± 1.5%; a viability at 48 h, 100 µM of 55 ± 4.6%. Moreover, in series [13], the NF-κB activation entry is given as “decreased”.
`O=c1cc(-c2ccc(O)c(O)c2)oc2cc(O)cc(O)c12` [Luteolin] returned a CC50 at 48 h in series [14] above 100 µM. In addition, the NF-κB inhibition entry in [15] is listed as “markedly inhibit”. The “IR (%) inhibition rate” value in [2] (4 µM) came to 4.0 ± 5.1%. Besides, the “IR (%) inhibition rate” value in series [2] (20 µM) turned out to be 55 ± 1.2%. For the same compound, the “IR (%) inhibition rate” value in series [2] (20 µM, listed as luteolin) is listed as 40–65%. For the same compound, the IC50 in series [2] worked out at 18.4 µM. In series [3] (setting [17]), this compound showed a viability at 48 h, 4 µM of 99 ± 2.9%; a viability at 48 h, 20 µM of 81 ± 4.7%; a viability at 48 h, 100 µM of 61 ± 1.5%.
Take `O=c1c(O)c(-c2ccc(O)c(O)c2)oc2cc(O)cc(O)c12` [Quercetin]: the “N-methyl-N’-nitro-N-nitrosoguanidine-induced inflammation” value in series [16] is given as “reduced”. The NF-κB inhibition result in [15] is “markedly inhibit”. The “IR (%) inhibition rate” value in series [2] (4 µM) is recorded as 3.7 ± 0.0%. Besides, the “IR (%) inhibition rate” value in [2] (20 µM) turned out to be 51 ± 4.7%. Moreover, the “IR (%) inhibition rate” value in series [2] (20 µM, listed as quercetin) is listed as 40–65%. The IC50 in [2] amounted to 19.8 µM. Also, the CC50 at 48 h in series [3] was above 100 µM. For the same compound, in series [3] (setting [17]), the viability at 48 h, 4 µM is 100 ± 3%; the viability at 48 h, 20 µM was determined as 100 ± 3%; the viability at 48 h, 100 µM amounted to 51 ± 0.5%.
Regarding `C/C1=C\CC(C)(C)/C=C/C(=O)/C(C)=C/CC1` [Zerumbone], in [15], the NF-κB inhibition entry is “markedly inhibit”. Besides, in series [2] (4 µM), the “IR (%) inhibition rate” value is reported as 6.6 ± 0.8%. The “IR (%) inhibition rate” value in series [2] (20 µM) is reported as 57 ± 0.2%. Moreover, the “IR (%) inhibition rate” value in series [2] (20 µM, listed as zerumbone) was 40–65%. For the same compound, in series [2], the IC50 is 17.7 µM. In series [3] (setting [17]), this compound displayed a CC50 at 48 h of 60.5 µM; a viability at 48 h, 4 µM of 100 ± 0.4%; a viability at 48 h, 20 µM of 77 ± 0.3%; a viability at 48 h, 100 µM of 16 ± 1.1%.
